SMILES | melting point
COc1ccc(C2(c3ccc(-c4ccc(F)cc4)s3)N=C(N)N(C)C2=O)cc1C (stereo not given) | 110 °C
CC(C)(O)CC(=O)N[C@H]1CC[C@H](CCN2CCC(c3cccc4c3CCO4)CC2)CC1 | 168 °C
Cc1c(N(C)C)n2c(cc1=O)CCCC2 | > 240 °C
Nc1ncnc2c1sc(=O)n2C1OC(CO)C(O)C1O (stereo not given) | 248 to 250 °C
[N-]=[N+]=NC[C@H]1OC(O)[C@H](O)[C@@H](O)[C@@H]1O (stereo not given in full) | 128 to 130 °C
CCOc1ccc(C=CC(=O)N2CCc3c([nH]c4ccccc34)C2c2ccc3c(c2)OCO3)cc1 (stereo not given) | 199 to 200 °C
CC(=O)Nc1nc2c(s1)-c1c(cnn1-c1ccc(Cl)cc1)C2 | 296 to 305 °C
Cc1cccc(C)c1NCCCCn1ccnc1 | 146 to 147 °C
CNC(=O)c1cnn2c(C(=O)N3CCN(C(=O)OC(C)(C)C)CC3)c(Cc3cccc(F)c3C)c(-c3ccccc3)c2c1 | 153 to 154 °C
O=C(O)Cc1c([N+](=O)[O-])cc(O)c(O)c1[N+](=O)[O-] | 178 to 184 °C
O=C(NCCN1CCC2(CC1)C(=O)NCN2c1ccccc1)c1ccc(F)cc1[N+](=O)[O-] | 160 °C
CCOC(=O)c1c(C(=O)C(=O)OC)c2cc(Cl)ccc2n1C | 119 to 120 °C
CC(=O)NC[C@H]1CN(c2ccc(C3=CN(C(=O)CO)CCC3)c(F)c2)C(=O)O1 | 171 to 173 °C
CC(Nc1ccc([N+](=O)[O-])cc1)c1ccccc1 (stereo not given) | 95 to 96 °C
CCNC1C(C)CN(c2c(F)c(N)c3c(=O)c(C(=O)O)cn(C4CC4)c3c2OC)CC1C (stereo not given) | 202 to 204 °C
CCCN(CCCc1c[nH]c2c(F)cc(F)cc12)C1COc2c(C(N)=O)ccc(F)c2C1 (stereo not given) | 130 °C
CCCc1c(OCCCCCC(=O)NCCCCCCc2cccnc2)ccc(C(C)=O)c1O | 56 to 58 °C
CN(Cc1ccccc1)C(=O)Cn1nc(-c2ccccc2O)nc1-c1ccccc1O | 179 to 180 °C
CN(c1ccc(Cl)cc1)c1ncnc2cc(Cl)ccc12 | 129 to 131 °C
CN(C)C(=S)Sc1cc(=O)n(Cc2ccccc2)s1 | 184 to 186 °C
COC(=O)C1Cc2c([nH]c3ccccc23)C(c2ccc3c(c2)OCO3)N1C(=O)CCl (stereo not given) | 207 to 208 °C
O=C(c1cccc(C(F)(F)F)c1)c1cc2cccc(Br)c2o1 | 75 to 78 °C
CCOC(=O)c1cnc2n(c1=O)CCc1cc(OC)ccc1-2 | 158 to 160 °C

SMILES | melting point
CCCCCc1cc(O)c2c(c1)OC(C)(C)CC2C1=CCN(Cc2ccc3ccccc3c2)CC1 (stereo not given) | 49 to 51.5 °C
O=C(Nc1ccccc1F)c1c(O)ccn2c1nc1ccccc12 | 237 to 238 °C
CCOc1cc(N=Nc2ccc(OC)cc2)c(O)c(C(C)(C)C)c1 | 105 to 108 °C
CC(C)(C)OC(=O)NC1CCCCCC=CC2CC2(C(=O)NS(=O)(=O)C2CC2)NC(=O)C2CC(OC(=O)c3ccc4nccnc4c3)CN2C1=O (stereo not given) | 158 to 160 °C
CCOC(=O)CCC(=O)c1ccc(CCN(CC=Cc2ccc(Cl)cc2)S(=O)(=O)c2ccc(Cl)cc2)cc1 | 100 to 101 °C
CCCN(c1ccncn1)n1cc(C)c2ccccc21 | 74 to 76 °C
CCOC(=O)C(c1ccc(NC(=O)OC(C)(C)C)cc1)N(C)C(C)C (stereo not given) | 87 to 88 °C
CC(C(=O)Nc1ccc2c(c1)CC(=O)N2)N1CCC(Cc2ccccc2)CC1 (stereo not given) | 153 to 155 °C
CN(c1cccc2cc(C3=NCC(CCNc4nnc[nH]4)S3)[nH]c12)S(=O)(=O)c1cccs1 (stereo not given) | 195 °C
O=C(O)c1cnc(Nc2ccccc2F)[nH]c1=O | 300 °C
c1ccc(CN2C[C@H]3CCCC[C@@]3(Cc3ccccc3)C2)cc1 (relative stereo) | 156 to 158 °C
N#CC(C#N)=C1CC(=C(C#N)C#N)c2ccccc21 | 224 to 228 °C
CCCCOCCOc1ccc(-c2ccc3c(c2)C=C(C(=O)O)CCN3CC2CC2)cc1 | 152 to 155 °C
CCCc1nc2c(N)nc(C)c(C)c2n1CCCS(=O)(=O)c1ccc(C(=O)OCC)cc1 | 169 to 171 °C
c1cc2c(c(NC3=NCCO3)c1)CCCC2 | 101 to 103 °C
C#CCn1nnc2cc3c(cc2c1=O)OC1CCCN1C3=O (stereo not given) | 186 to 188 °C
CN(C(=O)N1Cc2nc(Cc3ccccc3)n(Cc3ccccc3)c2C[C@H]1CO)c1ccccc1 | 80 to 87 °C
CNc1nc(NC)nc(NC)n1 | 133 °C
O=c1[nH]c2cccc(C3CCCNC3)c2[nH]1 (stereo not given) | 260 °C
CC(C)Oc1ccc(-c2nc(-c3ccc(OC(C)C)cc3O)nc(-c3ccc(OC(C)C)cc3O)n2)c(O)c1 | 122 °C
CCOC(=O)C(C)(C)Oc1ccc(-c2ccc(CCNC(=O)c3cccc(C)c3)cc2)cc1 | < 20 °C
O=C(NCC1CCNCC1)c1ccccc1 | 119 °C
CC(=O)Cc1ccc(Oc2ccc(C(F)(F)F)cc2)cc1 | 88 to 90 °C

Results, then the compound that gave them:

melting point | SMILES
132 °C | CCNC(=O)c1ccc(-n2nnc(C(=O)NC3CC3)c2COCc2ccccc2)c(OCc2ccccc2)c1
185 to 187 °C | Cc1ccc(-c2ccc3c(c2)C=C(C(=O)Nc2ccc(CN4CCN(CCO)CC4)cc2)CC3)cc1
94 to 95 °C | Cc1c(NC(=O)CC(C)(C)C)cc2c(c1C)O[C@@H](C)[C@H]2c1ccc(C(C)C)cc1 (relative stereo)
226 to 229 °C | CCc1ccc(N2CCCN(c3cc[nH]c(=S)c3C#N)CC2)cc1
63 to 65 °C | O=C(O)[C@H](Cc1ccccc1)NC(=S)Cc1ccccc1
85 to 86 °C | N#CCCNC(=O)C1=CC(CF)(CF)Oc2ccc(C(F)(F)C(F)(F)C(F)(F)C(F)(F)F)cc21
241 to 249 °C | O=C(O)c1nc(NCC(c2ccccc2)c2ccccc2)c2nc[nH]c2n1
232 to 234 °C | Cc1c(CC(=O)O)c2cc(OCc3ccc4ccccc4n3)ccc2n1Cc1ccc(C(=O)O)cc1
107 to 109 °C | Cc1cc(SC(C)C)c(NC(=O)CCCCSc2nc3ccccc3s2)c(SC(C)C)n1
140 to 164 °C | CCOC(=O)c1cnccc1CCCOc1cccnc1Oc1cccc(Cl)c1
72 to 75 °C | c1ccc(CN2CCOC(c3ccccc3)(c3ccccc3)CC2)cc1
177 to 179 °C | O=S(c1cc(Br)c(-c2ccc(Cl)cc2)[nH]1)C(F)(F)F (stereo not given)
61 to 65 °C | COC(=O)CCCC#Cc1cc(Cl)ccc1NS(=O)(=O)c1ccc2nc(N)sc2c1
75 to 77 °C | CCOCc1nc2c(N)nc3ccccc3c2n1NCCCNC(=O)C1CCCC1
229 °C | Cc1cn(-c2nc(C3=Nc4ccc(-c5ccc(F)cc5)cc4NC(=O)C3)cs2)cn1
71 °C | O=Cc1ccc(OCc2ccccc2F)c(Cc2ccccc2F)c1
> 300 °C | Nc1ccc(-c2cnn3c(O)ncnc23)cc1
65 to 67 °C | CCOC(=N)C(O)c1ccccc1 (stereo not given)
242 to 243 °C | CCC(CC)(CCC#N)C(NC(=O)c1ccc(Cl)cc1)Nc1c(Nc2cccnc2)c(=O)c1=O (stereo not given)
291 to 293 °C | CCc1c(Oc2cnc(N)nc2N)cc(Br)c2c1OCCO2
308 to 310 °C | Nc1cccc2c1C(=O)N([C@@H]1CCC(=O)NC1=O)C2=O
130 to 131 °C | COc1ccc(NC(=O)C2CC2)cn1
238 °C | CNC1=C([N+](=O)[O-])C(=O)NC1=Cc1ccccc1
43 to 47 °C | O=C1C(Br)CCN1c1cc(C(F)(F)F)ccn1 (stereo not given)
189 to 192 °C | Cn1cc2c3c(ccc2n1)CCC3=CC#N
244 to 246 °C | O=C(O)c1cn(-c2ccc(F)cc2F)c2cc(Cl)c(F)c(Cl)c2c1=O
68 to 69 °C | CCOC(=O)C(Cc1cc(OC)ccc1OC)C(C)=O (stereo not given)

melting point | SMILES
122 to 129 °C | CCCCCCCC(O)CNCCCCCCNCC(O)CCCCCCC (stereo not given)
235 °C | COc1nc(O)nc(C)c1Cl
152 to 154 °C | CC(O)(C(=O)Nc1ccc(S(=O)(=O)F)cc1)C(F)(F)F (stereo not given)
162 to 163 °C | CC(=O)NC(CCC(=O)c1c(F)cccc1F)c1ccc(Br)cc1 (stereo not given)
235 °C | COc1ccc(S(=O)(=O)C2(C(=O)O)CCN(Cc3ccc(-c4cccs4)cc3)CC2)cc1
132 to 134 °C | CCC12CCC3=C(CCc4cc(OC(C)=O)ccc43)C1CCC2=O (stereo not given)
77 to 79 °C | COC(=O)c1cc(Cl)cnc1NCc1ccccc1
124 to 126 °C | CC(=O)c1c(N)c(-c2ccccc2)n(C)c1C
210 to 212 °C | CS(=O)(=O)c1cccc(NC(=O)c2ccccc2O)c1
134 to 135 °C | COc1ccc(C2(CCC(=O)O)SCCCS2)cc1OC
140 °C | c1ccc(-c2ncc(-c3cnc(C4CCCNC4)[nH]3)cn2)cc1 (stereo not given)
121 to 123 °C | Nc1ccc(C(=O)c2cccc(N)c2)cc1
210 to 211 °C | Nc1c2c(=O)c3ccccc3c(=O)c2c(N)c2c(=O)n(CCCCCCO)c(=O)c12
136 to 138 °C | Cc1c(O)c(=O)ccn1CCCCCO
156 to 157 °C | O=c1ccn(-c2cccc(C(F)(F)F)c2)nc1-c1ccnn1Cc1ccccc1
183 to 185 °C | CC(C)CC1(C(CCN2C(=O)c3c(F)c(F)c(F)c(F)c3C2=O)C(=O)NO)CCN(Cc2ccccc2)C1=O (stereo not given)
258 °C | O=C(O)C1Cc2sccc2C(=O)N1Cc1ccccc1 (stereo not given)
> 250 °C | Cc1c(C#N)sc2nc(-c3ccncc3)nc(N3CCOCC3)c12
95 to 97 °C | CCOC(=O)C1=C(C)NC(SCc2ccc(OC)cc2)=NC1c1cccc([N+](=O)[O-])c1 (stereo not given)
155 to 157 °C | COc1cc(C(C)=O)ccc1OCCCN1CCN(c2n[nH]c3ccccc23)CC1
293 to 294 °C | CC(C)(C)c1ccc(C(=O)Nc2cn3cc(-c4ccncc4)ccc3n2)cc1
176 to 179 °C | COC(=O)c1ccc(-c2csc(N3C(=O)OCC3(C)C)n2)cc1
239 to 240 °C | NC(=O)c1c(C(=O)O)cnn1-c1ccc(Cl)cc1Cl
186 °C | COc1cc(N)nc(Cl)n1
192 to 195 °C | COc1ccc(S(=O)(=O)N2C(=O)C(N)(c3ccccc3Cl)c3cc(Cl)ccc32)c([N+](=O)[O-])c1 (stereo not given)
163 °C | COc1c(C)cnc(CSc2nc3cc(C(F)(F)F)ccc3[nH]2)c1C
78 to 79 °C | COc1cc(OC)c(F)c(N)c1F

From a melting point compilation (Tetko et al.; mined from patent text by program, amines drawn as free bases though some values may be those of a salt)
